Source: patent US20200016136A1 (VIIV HEALTHCARE UK (NO. 5) LIMITED, priority 2017, published 2020)

System: NL-RLuc virus (recombinant NL4-3 HIV with Renilla Luciferase gene)
Assay: Inhibition of HIV replication (NL-RLuc virus in MT-2 cells, luciferase readout)
Format: cell-based, Human immunodeficiency virus (HIV)
Details: MT2, 120 h
Description: Inhibition of HIV Replication:
A recombinant NL-RLuc proviral clone was constructed in which a section of the nef gene form NL4-3 was replaced with the Renilla Luciferase gene. This virus is fully infectious and can undergo multiple cycles of replication in cell culture. In addition, the luciferous reporter provides a simple and easy method for quantitating the extent of virus growth and consequently, the antiviral activity of test compounds. The plasmid pNLRLuc contains the proviral NL-Rluc DNA cloned into pUC18 at the PvuII site. The NL-RLuc virus was prepared by transfection of 293T cells with the plasmid pNLRLuc. Transfections were performed using the LipofectAMINE PLUS kit form Invitrogen (Carlsbad, Calif.) according to the manufacturer and the virus generated was titered in MT-2 cells. For susceptibility analyses, the titrated virus was used to infect MT-2 cells in the presence of compound, and after 5 days of incubation, cells were processed and quantitated for virus growth by the amount of expressed luciferase. Assay media was RPMI 1640 supplemented with 10% heat inactivated fetal bovine serum (FBS), 100 units/ml penicillin G/100 units/ml streptomycin, 10 mM HEPES buffer pH 7.55 and 2 mM L-glutamine. The results form at least 2 experiments were used to calculate the EC50 values. Luciferase was quantitated using the Dual Luciferase kit form Promega (Madison, Wis.). Susceptibility of viruses to compounds was determined by incubation in the presence of serial dilutions of the compound. The 50% effective concentration (EC50) was calculated by using the exponential form of the median effect equation where (Fa)=1/[1+(ED50/drug conc.)^m](Johnson V A, Byington R T. Infectivity Assay. In Techniques in HIV Research. ed. Aldovini A, Walker B D. 71-76. New York: Stockton Press. 1990).

Cc1nc(C)c([C@H](OC(C)(C)C)C(=O)O)c(N2CCC(C)(C)CC2)c1-c1ccc2c(c1)CCN(Cc1ccccc1)C2 [Example 52, (2S)-2-[5-(2-Benzyl-1,2,3,4-tetrahydroisoquinolin-6-yl)-4-(4,4-dimethylpiperidin-1-yl)-2,6-dimethylpyridin-3-yl]-2-(tert-butoxy)acetic Acid]
EC50: 3 nM

Cc1nc(C)c([C@H](OC(C)(C)C)C(=O)O)c(N2CCC(C)(C)CC2)c1-c1ccc2c(c1)CCN(c1ccnc(N3CCC3)n1)C2 [Example 18, (2S)-2-(5-{2-[2-(Azetidin-1-yl)pyrimidin-4-yl]-1,2,3,4-tetrahydroisoquinolin-6-yl}-4-(4,4-dimethylpiperidin-1-yl)-2,6-dimethylpyridin-3-yl)-2-(tert-butoxy)acetic Acid]
EC50: 1 nM

Cc1nc(C)c([C@H](OC(C)(C)C)C(=O)O)c(N2CCC(C)(C)CC2)c1-c1ccc2c(c1)CCN(c1nccc(N3CC4CCC(C3)O4)n1)C2 [Example 30, (2S)-2-(tert-Butoxy)-2-[4-(4,4-dimethylpiperidin-1-yl)-2,6-dimethyl-5-[2-(4-{8-oxa-3-azabicyclo[3.2.1]octan-3-yl}pyrimidin-2-yl)-1,2,3,4-tetrahydroisoquinolin-6-yl]pyridin-3-yl]acetic Acid]
EC50: 1 nM

Cc1cccc(Cl)c1CN1CCc2cc(-c3c(C(=O)O)nc(C)c([C@H](OC(C)(C)C)C(=O)O)c3N3CCC(C)(C)CC3)ccc2C1 [Example 116, (S)-5-(tert-Butoxy(carboxy)methyl)-3-(2-(2-chloro-6-methylbenzyl)-1,2,3,4-tetrahydroisoquinolin-6-yl)-4-(4,4-dimethylpiperidin-1-yl)-6-methylpicolinic Acid]
EC50: 4 nM

Cc1cccc(Cl)c1CN1CCc2cc(-c3c(NCCN4CCCCC4)nc(C)c([C@H](OC(C)(C)C)C(=O)O)c3N3CCC(C)(C)CC3)ccc2C1 [Example 4, (S)-2-(tert-Butoxy)-2-(5-(2-(2-chloro-6-methylbenzyl)-1,2,3,4-tetrahydroisoquinolin-6-yl)-4-(4,4-dimethylpiperidin-1-yl)-2-methyl-6-((2-(piperidin-1-yl)ethyl)amino)pyridin-3-yl)acetic Acid]
EC50: 4 nM

Cc1nc(C)c([C@H](OC(C)(C)C)C(=O)O)c(N2CCC(C)(C)CC2)c1-c1ccc2c(c1)CCN(c1cc(N3CCCCC3)ncn1)C2 [Example 124, (S)-2-(tert-Butoxy)-2-(4-(4,4-dimethylpiperidin-1-yl)-2,6-dimethyl-5-(2-(6-(piperidin-1-yl)pyrimidin-4-yl)-1,2,3,4-tetrahydroisoquinolin-6-yl)pyridin-3-yl)acetic Acid]
EC50: 17 nM

CC1(C)CCN(c2c(-c3ccc4c(c3)CCN(c3nccc(N5CCOCC5)n3)C4)c(N)nc(Cl)c2[C@H](OC(C)(C)C)C(=O)O)CC1 [Example 167, (S)-2-(6-Amino-2-chloro-4-(4,4-dimethylpiperidin-1-yl)-5-(2-(4-morpholinopyrimidin-2-yl)-1,2,3,4-tetrahydroisoquinolin-6-yl)pyridin-3-yl)-2-(tert-butoxy)acetic Acid]
EC50: 4 nM

Cc1ncc(-c2ccc3c(c2)CCN(c2nccc(-c4cnccn4)n2)C3)c(N2CCC(C)(C)CC2)c1[C@H](OC(C)(C)C)C(=O)O [Example 147, (S)-2-(tert-Butoxy)-2-(4-(4,4-dimethylpiperidin-1-yl)-2-methyl-5-(2-(4-(pyrazin-2-yl)pyrimidin-2-yl)-1,2,3,4-tetrahydroisoquinolin-6-yl)pyridin-3-yl)acetic Acid]
EC50: 2 nM

Cc1nc(CN2CCC(C)(C)CC2)c(-c2ccc3c(c2)CCN(c2ncnc4c2oc2ccccc24)C3)c(N2CCC(C)(C)CC2)c1[C@H](OC(C)(C)C)C(=O)O [Example 161, (S)-2-(5-(2-(Benzofuro[3,2-d]pyrimidin-4-yl)-1,2,3,4-tetrahydroisoquinolin-6-yl)-4-(4,4-dimethylpiperidin-1-yl)-6-((4,4-dimethylpiperidin-1-yl)methyl)-2-methylpyridin-3-yl)-2-(tert-butoxy)acetic Acid]
EC50: 1 nM

CCOc1cc(N2CCc3cc(-c4c(C)nc(C)c([C@H](OC(C)(C)C)C(=O)O)c4N4CCC(C)(C)CC4)ccc3C2)ncn1 [Example 126, (S)-2-(tert-Butoxy)-2-(4-(4,4-dimethylpiperidin-1-yl)-5-(2-(6-ethoxypyrimidin-4-yl)-1,2,3,4-tetrahydroisoquinolin-6-yl)-2,6-dimethylpyridin-3-yl)acetic Acid]
EC50: 5 nM

Cc1nc(C)c([C@H](OC(C)(C)C)C(=O)O)c(N2CCC(C)(C)CC2)c1-c1ccc2c(c1)CCN(c1cc(N3CCCC(C)(C)C3)ncn1)C2 [Example 139, (S)-2-(tert-Butoxy)-2-(4-(4,4-dimethylpiperidin-1-yl)-5-(2-(6-(3,3-dimethylpiperidin-1-yl)pyrimidin-4-yl)-1,2,3,4-tetrahydroisoquinolin-6-yl)-2,6-dimethylpyridin-3-yl)acetic Acid]
EC50: 4 nM

Cc1cccc(Cl)c1CN1CCc2cc(-c3c(NCCn4cccn4)nc(C)c([C@H](OC(C)(C)C)C(=O)O)c3N3CCC(C)(C)CC3)ccc2C1 [Example 7, (S)-2-(6-((2-(1H-Pyrazol-1-yl)ethyl)amino)-5-(2-(2-chloro-6-methylbenzyl)-1,2,3,4-tetrahydroisoquinolin-6-yl)-4-(4,4-dimethylpiperidin-1-yl)-2-methylpyridin-3-yl)-2-(tert-butoxy)acetic Acid]
EC50: 13 nM

Cc1nc(NCCCN2CCCCC2)c(-c2ccc3c(c2)CCN(c2ncnc4c2oc2ccccc24)C3)c(N2CCC(C)(C)CC2)c1[C@H](OC(C)(C)C)C(=O)O [Example 15, (S)-2-(5-(2-(Benzofuro[3,2-d]pyrimidin-4-yl)-1,2,3,4-tetrahydroisoquinolin-6-yl)-4-(4,4-dimethylpiperidin-1-yl)-2-methyl-6-((3-(piperidin-1-yl)propyl)amino)pyridin-3-yl)-2-(tert-butoxy)acetic Acid]
EC50: 2 nM

CCC(C)(C)O[C@H](C(=O)O)c1c(C)nc(C)c(-c2ccc3c(c2)CCN(c2ncnc4c2oc2ccccc24)C3)c1N1CCC(C)(C)CC1 [Example 141, (S)-2-(5-(2-(Benzofuro[3,2-d]pyrimidin-4-yl)-1,2,3,4-tetrahydroisoquinolin-6-yl)-4-(4,4-dimethylpiperidin-1-yl)-2,6-dimethylpyridin-3-yl)-2-(tert-pentyloxy)acetic Acid]
EC50: 2 nM

COc1ncccc1-c1cc(C)nc(N2CCc3cc(-c4c(C)nc(C)c([C@H](OC(C)(C)C)C(=O)O)c4N4CCC(C)(C)CC4)ccc3C2)n1 [Example 106, (S)-2-(tert-Butoxy)-2-(4-(4,4-dimethylpiperidin-1-yl)-5-(2-(4-(2-methoxypyridin-3-yl)-6-methylpyrimidin-2-yl)-1,2,3,4-tetrahydroisoquinolin-6-yl)-2,6-dimethylpyridin-3-yl)acetic Acid]
EC50: 8 nM

Cc1nc(CO)c([C@H](OC(C)(C)C)C(=O)O)c(N2CCC(C)(C)CC2)c1-c1ccc2c(c1)CCN(c1ncnc3c1oc1ccccc13)C2 [Example 133, (S)-2-(5-(2-(Benzofuro[3,2-d]pyrimidin-4-yl)-1,2,3,4-tetrahydroisoquinolin-6-yl)-4-(4,4-dimethylpiperidin-1-yl)-2-(hydroxymethyl)-6-methylpyridin-3-yl)-2-(tert-butoxy)acetic Acid]
EC50: 3 nM

CCOc1ncnc(N2CCc3cc(-c4c(C)nc(C)c([C@H](OC(C)(C)C)C(=O)O)c4N4CCC(C)(C)CC4)ccc3C2)c1C [Example 78, (S)-2-(tert-Butoxy)-2-(4-(4,4-dimethylpiperidin-1-yl)-5-(2-(6-ethoxy-5-methylpyrimidin-4-yl)-1,2,3,4-tetrahydroisoquinolin-6-yl)-2,6-dimethylpyridin-3-yl)acetic Acid]
EC50: 5 nM

Cc1nc(NCCCN2CCN(C)CC2)c(-c2ccc3c(c2)CCN(c2ncnc4c2oc2ccccc24)C3)c(N2CCC(C)(C)CC2)c1[C@H](OC(C)(C)C)C(=O)O [Example 16, (S)-2-(5-(2-(Benzofuro[3,2-d]pyrimidin-4-yl)-1,2,3,4-tetrahydroisoquinolin-6-yl)-4-(4,4-dimethylpiperidin-1-yl)-2-methyl-6-((3-(4-methylpiperazin-1-yl)propyl)amino)pyridin-3-yl)-2-(tert-butoxy)acetic Acid]
EC50: 2 nM

Cc1nc(C)c([C@H](OC(C)(C)C)C(=O)O)c(N2CCC(C)(C)CC2)c1-c1ccc2c(c1)CCN(c1ccnc(N3CCC(CCO)CC3)n1)C2 [Example 144, (S)-2-(tert-Butoxy)-2-(4-(4,4-dimethylpiperidin-1-yl)-5-(2-(2-(4-(2-hydroxyethyl)piperidin-1-yl)pyrimidin-4-yl)-1,2,3,4-tetrahydroisoquinolin-6-yl)-2,6-dimethylpyridin-3-yl)acetic Acid]
EC50: 3 nM

Cc1nc(C)c([C@H](OC(C)(C)C)C(=O)O)c(N2CCC(C)(C)CC2)c1-c1ccc2c(c1)CCN(c1ccnc(N3CCC(O)CC3)n1)C2 [Example 75, (S)-2-(tert-Butoxy)-2-(4-(4,4-dimethylpiperidin-1-yl)-5-(2-(2-(4-hydroxypiperidin-1-yl)pyrimidin-4-yl)-1,2,3,4-tetrahydroisoquinolin-6-yl)-2,6-dimethylpyridin-3-yl)acetic Acid]
EC50: 3 nM
